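Dose response: 5 concentrations. Exposure: 48 h. Format: 96-well plates. Endpoint: linear interpolation; highest concentration if not reached. At the TGI there is no net growth.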
How the values were obtained:
Test in all cases: NCI tumour cell line growth inhibition, 48 h
786-0 renal = test system: 786-0 renal
A498 renal = test system: A498 renal
A549 NSCLC = test system: A549 NSCLC
ACHN renal = test system: ACHN renal
CAKI-1 renal = test system: CAKI-1 renal
CCRF-CEM leukemia = test system: CCRF-CEM leukemia
COLO 205 colon = test system: COLO 205 colon
DLD-1 colon = test system: DLD-1 colon
DMS 114 small cell lung = test system: DMS 114 small cell lung
EKVX NSCLC = test system: EKVX NSCLC
HCC-2998 colon = test system: HCC-2998 colon
HCT-116 colon = test system: HCT-116 colon
HCT-15 colon = test system: HCT-15 colon
HL-60(TB) leukemia = test system: HL-60(TB) leukemia
HOP-18 NSCLC = test system: HOP-18 NSCLC
HOP-62 NSCLC = test system: HOP-62 NSCLC
HOP-92 NSCLC = test system: HOP-92 NSCLC
HT29 colon = test system: HT29 colon
IGROV1 ovarian = test system: IGROV1 ovarian
K-562 leukemia = test system: K-562 leukemia
KM12 colon = test system: KM12 colon
KM20L2 colon = test system: KM20L2 colon
LOX IMVI melanoma = test system: LOX IMVI melanoma
LXFL 529 NSCLC = test system: LXFL 529 NSCLC
M14 melanoma = test system: M14 melanoma
M19-MEL melanoma = test system: M19-MEL melanoma
MALME-3M melanoma = test system: MALME-3M melanoma
MOLT-4 leukemia = test system: MOLT-4 leukemia
NCI-H226 lung = test system: NCI-H226 lung
NCI-H23 lung = test system: NCI-H23 lung
NCI-H460 lung = test system: NCI-H460 lung
NCI-H522 lung = test system: NCI-H522 lung
OVCAR-3 ovarian = test system: OVCAR-3 ovarian
OVCAR-4 ovarian = test system: OVCAR-4 ovarian
OVCAR-5 ovarian = test system: OVCAR-5 ovarian
OVCAR-8 ovarian = test system: OVCAR-8 ovarian
RPMI-8226 leukemia = test system: RPMI-8226 leukemia
RXF-631 renal = test system: RXF-631 renal
SF-268 CNS = test system: SF-268 CNS
SF-295 CNS = test system: SF-295 CNS
SF-539 CNS = test system: SF-539 CNS
SK-MEL-2 melanoma = test system: SK-MEL-2 melanoma
SK-MEL-28 melanoma = test system: SK-MEL-28 melanoma
SK-MEL-5 melanoma = test system: SK-MEL-5 melanoma
SK-OV-3 ovarian = test system: SK-OV-3 ovarian
SN12C renal = test system: SN12C renal
SNB-19 CNS = test system: SNB-19 CNS
SNB-75 CNS = test system: SNB-75 CNS
SNB-78 CNS = test system: SNB-78 CNS
SR leukemia = test system: SR leukemia
SW-620 colon = test system: SW-620 colon
U251 CNS = test system: U251 CNS
UACC-257 melanoma = test system: UACC-257 melanoma
UACC-62 melanoma = test system: UACC-62 melanoma
UO-31 renal = test system: UO-31 renal
XF 498 CNS = test system: XF 498 CNS
DMS 273 small cell lung = test system: DMS 273 small cell lung
RXF 393 renal = test system: RXF 393 renal
TK-10 renal = test system: TK-10 renal

Measured: TGI

N/N=C1\C(=O)N(C2CCCCC2)C(=O)C1C(=O)NC1CCCCC1 (stereo not drawn)
39.9 µM: KM20L2 colon
89.3 µM: HL-60(TB) leukemia
74.7 µM: SK-MEL-2 melanoma
51 µM: OVCAR-3 ovarian
93.6 µM: SN12C renal
not listed: DMS 273 small cell lung | RXF 393 renal | TK-10 renal
> 100 µM: all other assays above

COc1cc2c(c(C)c1O)[C@H]1COc3ccccc3[C@H]1O2
89.3 µM: OVCAR-4 ovarian
18.5 µM: HCT-15 colon
13.5 µM: NCI-H522 lung
30 µM: CAKI-1 renal
81.6 µM: A549 NSCLC
34.5 µM: NCI-H226 lung
42.6 µM: 786-0 renal
20.5 µM: DMS 273 small cell lung
29.8 µM: RXF-631 renal
36.7 µM: SF-539 CNS
26.7 µM: SNB-19 CNS
18.7 µM: HCT-116 colon
74.7 µM: EKVX NSCLC
89.1 µM: MALME-3M melanoma
52.9 µM: UACC-257 melanoma
31.3 µM: IGROV1 ovarian
52.2 µM: COLO 205 colon
12.7 µM: HL-60(TB) leukemia
31.8 µM: NCI-H460 lung
54 µM: RXF 393 renal
96.1 µM: SF-268 CNS
42.7 µM: MOLT-4 leukemia
64.2 µM: NCI-H23 lung
80.7 µM: SNB-78 CNS
56.5 µM: K-562 leukemia
23.7 µM: SNB-75 CNS
22.9 µM: SK-MEL-5 melanoma
56.6 µM: CCRF-CEM leukemia
80.8 µM: TK-10 renal
25 µM: M19-MEL melanoma
63.9 µM: KM20L2 colon
31.1 µM: LXFL 529 NSCLC
75.3 µM: RPMI-8226 leukemia
14.7 µM: LOX IMVI melanoma
35.6 µM: HOP-18 NSCLC
67.3 µM: OVCAR-8 ovarian
47.6 µM: DMS 114 small cell lung | HOP-92 NSCLC
24.6 µM: M14 melanoma
35.5 µM: UO-31 renal
not listed: HCC-2998 colon | SN12C renal | SR leukemia | SW-620 colon | U251 CNS | UACC-62 melanoma | XF 498 CNS
> 100 µM: all other assays above

COc1ccc(C(O)/C(=N\NC(N)=S)c2nc3ccc([N+](=O)[O-])cc3[nH]c2=O)cc1OC (stereo not drawn)
not listed: CAKI-1 renal | HCT-116 colon | HCT-15 colon | OVCAR-3 ovarian | SF-539 CNS | SK-MEL-5 melanoma | SN12C renal | SNB-19 CNS | SNB-78 CNS | SR leukemia
> 100 µM: all other assays above

CC(=O)O/N=C/c1ncccc1OC(C)=O
not listed: HCC-2998 colon | RPMI-8226 leukemia | SNB-78 CNS
> 100 µM: all other assays above
